Consider one compound from patent US11766470B2, “Manufacture, formulation and dosing of apraglutide” (VectivBio AG, priority 2020, dated 2023).

Square brackets hold non-standard residues; d marks the D form. Peptide text beside a SMILES is read from it. ξ: configuration not given here. Ile(3ξ) = CCC(C)[C@H](N)C(=O)O; Thr(3ξ) = CC(O)[C@H](N)C(=O)O; Nle = CCCC[C@H](N)C(=O)O

The test system of data set [1] is healthy adult volunteers. Put plainly: Safety in multiple dose study in healthy volunteers. The data set is classed as in vivo, human. As to conditions: 1, 5 or 10 mg, 6 weekly SC doses.
Experimental: The pharmacokinetic/pharmacodynamic (PK/PD) relationship between apraglutide, a novel long-acting GLP-2 analog in development for short bowel syndrome, and citrulline was evaluated in a randomized, double-blind, parallel arm, placebo-controlled, multiple dose study. 23 healthy adult volunteers received 6 weekly subcutaneous doses of apraglutide (1, 5, or 10 mg) or placebo and were followed for a further 6 weeks after the last dose. Blood collections were controlled for diet, lifestyle, and diurnal effects.
The conditions of data set [2]: cited from earlier work.

As for `CCCC[C@H](NC(=O)[C@H](CCC(=O)O)NC(=O)[C@H](CC(=O)O)NC(=O)[C@H](CO)NC(=O)[C@H](Cc1ccccc1)NC(=O)[C@H](CO)NC(=O)CNC(=O)[C@H](CC(=O)O)NC(=O)CNC(=O)[C@@H](N)Cc1c[nH]cn1)C(=O)N[C@H](Cc1ccccc1)C(=O)N[C@H](C(=O)N[C@H](C(=O)N[C@@H](CC(C)C)C(=O)N[C@@H](CC(=O)O)C(=O)N[C@@H](CC(C)C)C(=O)N[C@@H](CC(C)C)C(=O)N[C@@H](C)C(=O)N[C@@H](C)C(=O)N[C@@H](CCCNC(=N)N)C(=O)N[C@@H](CC(=O)O)C(=O)N[C@@H](Cc1ccccc1)C(=O)N[C@H](C(=O)N[C@@H](CC(N)=O)C(=O)N[C@@H](Cc1c[nH]c2ccccc12)C(=O)N[C@@H](CC(C)C)C(=O)N[C@H](C(=O)N[C@@H](CCC(N)=O)C(=O)N[C@H](C(=O)N[C@@H](CCCCN)C(=O)N[C@H](C(=O)N[C@H](C(=O)N[C@@H](CC(=O)O)C(N)=O)C(C)O)C(C)CC)C(C)O)C(C)CC)C(C)CC)C(C)CC)C(C)O` (stereo partly drawn) [apraglutide, L-histidyl-glycyl-L-aspartyl-glycyl-L-seryl-L-phenylalanyl-L-seryl-L-aspartyl-L-glutamyl-L-norleucyl-D-phenylalanyl-L-threonyl-Lisoleucyl-L-leucyl-L-aspartyl-L-leucyl-L-leucyl-L-alanyl-L-alanyl-L-arginyl-L-aspartyl-L-phenylalanyl-L-isoleucyl-L-asparaginyl-Ltryptophanyl-L-leucyl-L-isoleucyl-L-glutaminyl-L-threonyl-L-lysyl-L-isoleucyl-L-threonyl-Laspartic acid amide] (H-HGDGSFSDE[Nle][dF][Thr(3ξ)][Ile(3ξ)]LDLLAARDF[Ile(3ξ)]NWL[Ile(3ξ)]Q[Thr(3ξ)]K[Ile(3ξ)][Thr(3ξ)]D-NH2), the “Safety and tolerability in words” value in data set [1] was “safe and well-tolerated with no serious AEs”. Further, the “Intestinotrophic effect in animal models, in words” value in data set [2] is “promoted increase in intestinal length and weight, villus height and crypt depth”.
